Results taken from ChEMBL document CHEMBL1125021, “4-[(Carboxymethyl)oxy]- and 4-[(carboxymethyl)amino]-5,7-dichloroquinoline-2-carboxylic acid: new antagonists of the strychnine-insensitive glycine binding site on the N-methyl-D-aspartate receptor complex” (J Med Chem, 1990).

Legend:
[1] = Antagonistic activity against N-methyl-D-aspartate glutamate receptor induced cGMP in rat cerebellar slices..; format: functional
[2] = molecular target: Glutamate NMDA receptor; experiment: Binding activity against N-methyl-D-aspartate glutamate receptor in rat brain homogenate using [3H]CPP as the radioligand.; format: tissue-based
[3] = Selectivity ratio as the ratio of IC50 values for [3H]CPP/[3H]-gly
[4] = molecular target: Glutamate NMDA receptor; experiment: Binding activity against N-methyl-D-aspartate glutamate receptor in rat brain homogenate using [3H]-glycine as the radioligand.; format: tissue-based

IC50 [1]	IC50 [2]	Ratio [3]	IC50 [4]	Compound
3.5 µM	37 µM	463		O=C(O)c1cc(O)c2c(Cl)cc(Cl)cc2n1
225 µM	893 µM	99	9 µM	O=C(O)COc1cc(C(=O)O)nc2cc(Cl)cc(Cl)c12
8 µM		405		O=C(O)c1cc(O)c2ccc(Cl)cc2n1 [7-CHLOROKYNURENIC ACID]
3.6 µM	140 µM	1400	0.1 µM	O=C(O)CNc1cc(C(=O)O)nc2cc(Cl)cc(Cl)c12
